Experimental data as given in US20260306639A1, “DEGRADER FOR DECOMPOSING CMET PROTEIN, AND PHARMACEUTICAL COMPOSITION COMPRISING SAME” (INNOCURE THERAPEUTICS, INC., priority 2022, published 2026).

system: c-MET; experiment: c-MET protein degradation (Simple Western), MKN-45 cells; format: cell-based, human; details: MKN-45 gastric cancer cells, c-MET overexpressing; 24 hours
Experimental: In order to assess the resolution of the compound of the present invention for c-MET expressed in cells, cells were dispensed in a 12-well plate at a concentration of 2×10^5 cells/well, and then gastric cancer cell lines were treated with samples for 24 hours and lung cancer cell lines were treated for 48 hours. Cell lysates were collected using a scraper on ice, centrifuged at 4° C. 15,000 rpm for 30 min to obtain a protein-containing supernatant. Protein expression was then measured using the Simple Western Automated Western Blot System Abby instrument using 3 μg of protein for each sample. SDS and heat-induced denaturation proteins were separated by molecular weight, attached to capillary, reacted with anti-c-MET or anti-GAPDH antibodies, which are primary antibodies, and then reacted with HRP-conjugated secondary antibodies, and analyzed the protein expression signal with compass software. Protein expression was normalized based on the expression value of GAPDH, and protein development in each sample was measured as a percentage (%) based on 100% of samples treated with 0.1% DMSO carriers, and DC50 (concentration of a compound where 50% protein inhibition is achieved) was calculated from the change in protein expression amount due to compound treatment.

Row | Compound | DC50
1 | Cn1cc(-c2cnc3c(nnn3CC3CN(c4ncc(-c5ccc(CN6CCN(C(=O)CCCNc7cccc8cnn(C9CCC(=O)NC9=O)c(=O)c78)CC6)cc5)cn4)CCO3)n2)cn1 [ICT-0000969, 3-(8-((4-(4-(4-(4-(2-((S)-2-((5-(1-methyl-1H-pyrazole-4-yl)-1H-[1,2,3]triazolo[4,5-b]pyrazine-1-yl)methyl)morpholino)pyrimidine-5-yl)benzyl)piperazine-1-yl)4-oxobutyl)amino)1-oxopthalazine-2(1H)-yl)piperidine-2,6-dione] | < 0.1 µM
2 | Cn1cc(-c2cnc3c(nnn3C[C@@H]3CN(c4ncc(-c5ccc(CN6CCN(C(=O)COCCOCCOCCOCCNc7ccc8c(=O)n(C9CCC(=O)NC9=O)ncc8c7)CC6)cc5)cn4)CCO3)n2)cn1 (stereo partly drawn) [ICT-0000939, 3-[6-(15-{4-[(4-{2-[(2S)-2-{[5-(1-methyl-1H-pyrazole-4-yl)-1H-[1,2,3]triazolo[4,5-b]pyrazine-1-yl]methyl}morpholine-4-yl]pyrimidine-5-yl}phenyl)methyl]piperazine-1-yl}-15-oxo-4,7,10,13-tetraoxa-1-azpentadecane-1-yl)-1-oxo-1,2-dihydroptalazine-2-yl]piperidine-2,6-dione] | > 1 µM
3 | Cc1nn(C2CCC(=O)NC2=O)c(=O)c2cc(N3CCN(C(=O)CN4CCC(COc5cnc(-c6cccc(Cn7nc(-c8cccc(C#N)c8)ccc7=O)c6)nc5)CC4)CC3)ccc12 (centres unmarked) [ICT-0001115, 3-(1-(3-(5-((1-(2-(4-(3-(2,6-dioxopiperidin-3-yl)-1-methyl-4-oxo-3,4-dihydropetalazine-6-yl)piperazine-1-yl)2-oxoethyl)piperidine-4-il)methoxy)pyrimidine-2-yl)benzyl)6-oxo-1,6-dihydropyridazine-3-yl)benzonitrile] | < 0.1 µM
4 | Cn1cc(-c2cnc3c(nnn3C[C@@H]3CN(c4ncc(-c5ccc(CN6CCN(C(=O)COCCOCCOCCNc7ccc8c(=O)n(C9CCC(=O)NC9=O)ncc8c7)CC6)cc5)cn4)CCO3)n2)cn1 (stereo partly drawn) [ICT-0000938, 3-[6-(12-{4-[(4-{2-[(2S)-2-{[5-(1-methyl-1H-pyrazole-4-yl)-1H-[1,2,3]triazolo[4,5-b]pyrazine-1-yl]methyl}morpholine-4-yl]pyrimidine-5-yl}phenyl)methyl]piperazine-1-yl}-12-oxo-4,7,10-trioxa-1-azadodecane-1-yl)-1-oxo-1,2-dihydroptalazine-2-yl]piperidine-2,6-dione] | > 1 µM
5 | N#Cc1cccc(-c2ccc(=O)n(Cc3cccc(-c4ncc(OCC5CCN(CC(=O)NCCCCCc6ccc7c(=O)n(C8CCC(=O)NC8=O)ncc7c6)CC5)cn4)c3)n2)c1 (centres unmarked) [ICT-0001206] | < 0.1 µM
6 | N#Cc1cccc(-c2ccc(=O)n(Cc3cccc(-c4ncc(OCC5CCN(CCCCC(=O)N6CCN(c7ccc8c(=O)n(C9CCC(=O)NC9=O)ncc8c7)CC6)CC5)cn4)c3)n2)c1 (centres unmarked) [ICT-0001252] | < 0.1 µM
7 | Cn1cc(-c2cnc3c(nnn3C[C@@H]3CN(c4ncc(-c5ccc(CN6CCN(C(=O)CCCCCCNc7ccc8c(=O)n(C9CCC(=O)NC9=O)ncc8c7)CC6)cc5)cn4)CCO3)n2)cn1 (stereo partly drawn) [ICT-0000925, 3-(6-((7-(4-(4-(2-((S)-2-((5-(1-methyl-1H-pyrazole-4-yl)-1H-[1,2,3]triazolo[4,5-b]pyrazine-1-yl)methyl)morpholino)pyrimidine-5-yl)benzyl)piperazine-1-yl)7-oxoheptyl)amino)1-oxopthalazine-2(1H)-yl)piperidine-2,6-dione] | < 0.1 µM
8 | Cn1cc(-c2cnc3c(nnn3C[C@@H]3CN(c4ncc(-c5ccc(CN6CCN(C(=O)CCCCNc7cccc8cnn(C9CCC(=O)NC9=O)c(=O)c78)CC6)cc5)cn4)CCO3)n2)cn1 (stereo partly drawn) [ICT-0000959, 3-{8-[(5-{4-[(4-{2-[(2S)-2-{[5-(1-methyl-1H-pyrazole-4-yl)-1H-[1,2,3]triazolo[4,5-b]pyrazine-1-yl]methyl}morpholine-4-il]pyrimidine-5-yl}phenyl)methyl]piperazine-1-yl}-5-oxopentyl)amino]-1-oxo-1,2-dihydropthalazine-2-yl}piperidine-2,6-dione] | < 0.1 µM
9 | Cc1nn(C2CCC(=O)NC2=O)c(=O)c2cc(F)c(N3CCN(CC4CCN(C(=O)CN5CCC(COc6cnc(-c7cccc(Cn8nc(-c9cccc(C#N)c9)ccc8=O)c7)nc6)CC5)CC4)CC3)cc12 (centres unmarked) [ICT-0001204] | < 0.1 µM
10 | Cn1cc(-c2cnc3c(nnn3C[C@@H]3CN(c4ncc(-c5ccc(CN6CCN(C(=O)CCCCCNc7ccc8c(=O)n(C9CCC(=O)NC9=O)ncc8c7)CC6)cc5)cn4)CCO3)n2)cn1 (stereo partly drawn) [ICT-0000923, 3-{6-[(6-{4-[(4-{2-[(2S)-2-{[5-(1-methyl-1H-pyrazole-4-yl)-1H-[1,2,3]triazolo[4,5-b]pyrazine-1-yl]methyl}morpholine-4-day]pyrimidine-5-yl}phenyl)methyl]piperazine-1-yl}-6-oxohexyl)amino]-1-oxo-1,2-dihydrophthalazine-2-yl}piperidine-2,6-dione] | < 0.1 µM
11 | Cc1nn(C2CCC(=O)NC2=O)c(=O)c2ccc(N3CCN(CC4CCN(CC(=O)N5CCC(COc6cnc(-c7cccc(Cn8nc(-c9cccc(C#N)c9)ccc8=O)c7)nc6)CC5)CC4)CC3)cc12 (centres unmarked) [ICT-0001256] | < 0.1 µM

Other lines, results leading:

Row | DC50 | Compound
12 | < 0.1 µM | Cc1nn(C2CCC(=O)NC2=O)c(=O)c2cc(N3CCC(N4CCN(C(=O)CN5CCC(COc6cnc(-c7cccc(Cn8nc(-c9cccc(C#N)c9)ccc8=O)c7)nc6)CC5)CC4)CC3)ccc12 (centres unmarked) [ICT-0001233]
13 | < 0.1 µM | N#Cc1cccc(-c2ccc(=O)n(Cc3cccc(-c4ncc(OCC5CCN(C(=O)CCCCN6CCN(c7ccc8c(=O)n(C9CCC(=O)NC9=O)ncc8c7)CC6)CC5)cn4)c3)n2)c1 (centres unmarked) [ICT-0001201, 3-(1-{[3-(5-{[1-(5-{4-[2-(2,6-dioxopiperidin-3-yl)-1-oxo-1,2-dihydropetalazine-6-yl]piperazine-1-yl}pentanoyl)piperidine-4-il]methoxy}pyrimidine-2-yl)phenyl]methyl}6-oxo-1,6-dihydropyridazine-3-yl)benzonitrile]
14 | < 0.1 µM | Cc1nn(C2CCC(=O)NC2=O)c(=O)c2cc(N3CCC(N4CCN(CC(=O)N5CCC(COc6cnc(-c7cccc(Cn8nc(-c9cccc(C#N)c9)ccc8=O)c7)nc6)CC5)CC4)CC3)ccc12 (centres unmarked) [ICT-0001270]
15 | < 0.1 µM | N#Cc1cccc(-c2ccc(=O)n(Cc3cccc(-c4ncc(OCC5CCN(C(=O)CCCCCCNc6ccc7c(=O)n(C8CCC(=O)NC8=O)ncc7c6)CC5)cn4)c3)n2)c1 (centres unmarked) [ICT-0000985, 3-(1-{[3-(5-{[1-(7-{[2-(2,6-dioxopiperidin-3-yl)-1-oxo-1,2-dihydrophthalazine-6-yl]amino}heptanoyl)piperidine-4-il]methoxy}pyrimidine-2-yl)phenyl]methyl}-6-oxo-1,6-dihydropyridazine-3-yl)benzonitrile]
16 | < 0.1 µM | Cc1nn(C2CCC(=O)NC2=O)c(=O)c2cc(N3CCN(C(=O)CCN4CCC(COc5cnc(-c6cccc(Cn7nc(-c8cccc(C#N)c8)ccc7=O)c6)nc5)CC4)CC3)ccc12 (centres unmarked) [ICT-0001225]
17 | < 0.1 µM | N#Cc1cccc(-c2ccc(=O)n(Cc3cccc(-c4ncc(OCC5CCN(C(=O)CCCN6CCN(c7ccc8c(=O)n(C9CCC(=O)NC9=O)ncc8c7)CC6)CC5)cn4)c3)n2)c1 (centres unmarked) [ICT-0001200, 3-(1-{[3-(5-{[1-(4-{4-[2-(2,6-dioxopiperidine-3-yl)-1-oxo-1,2-dihydropthalazine-6-yl]piperazine-1-day}butanoyl)piperidine-4-il]methoxy}pyrimidine-2-yl)phenyl]methyl}6-oxo-1,6-dihydropyridazine-3-yl)benzonitrile]
18 | < 0.1 µM | Cc1nn(C2CCC(=O)NC2=O)c(=O)c2ccc(N3CCC(CN4CCN(C(=O)CN5CCC(COc6cnc(-c7cccc(Cn8nc(-c9cccc(C#N)c9)ccc8=O)c7)nc6)CC5)CC4)CC3)cc12 (centres unmarked) [ICT-0001236]
19 | < 0.1 µM | Cc1nn(C2CCC(=O)NC2=O)c(=O)c2ccc(N3CCN(C4CCN(CC(=O)N5CCC(COc6cnc(-c7cccc(Cn8nc(-c9cccc(C#N)c9)ccc8=O)c7)nc6)CC5)CC4)CC3)cc12 (centres unmarked) [ICT-0001255]
20 | > 1 µM | Cc1nn(C2CCC(=O)NC2=O)c(=O)c2c(NCC(=O)N3CCC(COc4cnc(-c5cccc(Cn6nc(-c7cccc(C#N)c7)ccc6=O)c5)nc4)CC3)cccc12 (centres unmarked) [ICT-0000981]
21 | < 0.1 µM | Cc1nn(C2CCC(=O)NC2=O)c(=O)c2ccc(NCCOCCOCC(=O)N3CCC(COc4cnc(-c5cccc(Cn6nc(-c7cccc(C#N)c7)ccc6=O)c5)nc4)CC3)cc12 (centres unmarked) [ICT-0001087]
22 | < 0.1 µM | Cc1nn(C2CCC(=O)NC2=O)c(=O)c2ccc(N3CCN(CC4CN(C(=O)CN5CCC(COc6cnc(-c7cccc(Cn8nc(-c9cccc(C#N)c9)ccc8=O)c7)nc6)CC5)C4)CC3)cc12 (centres unmarked) [ICT-0001235]
23 | < 0.1 µM | N#Cc1cccc(-c2ccc(=O)n(Cc3cccc(-c4ncc(OCC5CCN(CCC(=O)N6CCN(c7ccc8c(=O)n(C9CCC(=O)NC9=O)ncc8c7)CC6)CC5)cn4)c3)n2)c1 (centres unmarked) [ICT-0001223]
24 | < 0.1 µM | Cc1nn(C2CCC(=O)NC2=O)c(=O)c2cc(N3CCN(C(=O)CCCN4CCC(COc5cnc(-c6cccc(Cn7nc(-c8cccc(C#N)c8)ccc7=O)c6)nc5)CC4)CC3)ccc12 (centres unmarked) [ICT-0001228]
25 | < 0.1 µM | Cc1nn(C2CCC(=O)NC2=O)c(=O)c2ccc(N3CCN(CC4CN(CC(=O)N5CCC(COc6cnc(-c7cccc(Cn8nc(-c9cccc(C#N)c9)ccc8=O)c7)nc6)CC5)C4)CC3)cc12 (centres unmarked) [ICT-0001253]
26 | < 0.1 µM | Cc1nn(C2CCC(=O)NC2=O)c(=O)c2cc(N3CCC(CN4CCN(CC(=O)N5CCC(COc6cnc(-c7cccc(Cn8nc(-c9cccc(C#N)c9)ccc8=O)c7)nc6)CC5)CC4)CC3)ccc12 (centres unmarked) [ICT-0001239]
